Laboratory results reported in the supplement of paper PMC10307832.

Tests used:
Assay in all cases: relative viability (nuclei count vs DMSO), 5 days (fraction); higher = more cells survive
[1] = test system: 201T
Summary of the method: (§1)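 Nuclei were stained with Hoechst during a one-step fixation (final 0.05% Triton X-100, 1% formaldehyde, 1 ug/ml Hoechst) carried out 5 days after dosing, then counted on 4× images. The cells, lung cancer lines in 1536-well plates, had been dosed by pin tool the day after seeding with one drug alone or a fixed anchor-drug dose plus five library-drug doses (not always all listed) in √10 steps. Relative viability is the nuclei count in treated wells divided by that in vehicle wells, and each value is the median of duplicate plates.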

[2] = test system: BEN
Summary of the method: as §1

[3] = test system: CAL-12T
Summary of the method: as §1

[4] = test system: HCC-78
Summary of the method: as §1

[5] = test system: HOP-62
Summary of the method: as §1

[6] = test system: LCLC-97TM1
Summary of the method: as §1

[7] = test system: LOU-NH91
Summary of the method: as §1

[8] = test system: NCI-H1355
Summary of the method: as §1

[9] = test system: NCI-H1395
Summary of the method: as §1

[10] = test system: NCI-H1563
Summary of the method: as §1

[11] = test system: NCI-H1651
Summary of the method: as §1

[12] = test system: NCI-H1793
Summary of the method: as §1

[13] = test system: NCI-H1915
Summary of the method: as §1

[14] = test system: NCI-H1944
Summary of the method: as §1

[15] = test system: NCI-H2126
Summary of the method: as §1

[16] = test system: NCI-H2347
Summary of the method: as §1

[17] = test system: NCI-H3122
Summary of the method: as §1

[18] = test system: NCI-H322M
Summary of the method: as §1

[19] = test system: NCI-H441
Summary of the method: as §1

[20] = test system: NCI-H650
Summary of the method: as §1

[21] = test system: NCI-H838
Summary of the method: as §1

[22] = test system: SK-LU-1
Summary of the method: as §1

[23] = test system: SW 1573
Summary of the method: as §1

## CCNC(=O)c1noc(-c2cc(C(C)C)c(O)cc2O)c1-c1ccc(CN2CCOCC2)cc1 [Luminespib] + Cc1nc(Nc2ncc(C(=O)Nc3c(C)cccc3Cl)s2)cc(N2CCN(CCO)CC2)n1 [Dasatinib] (partner 0.075 µM)
[1]; first compound 0.002 µM
  relative viability: 0.524
[1]; first compound 0.006325 µM
  relative viability: 0.614
[1]; first compound 0.02 µM
  relative viability: 0.506
[1]; first compound 0.06325 µM
  relative viability: 0.569
[1]; first compound 0.2 µM
  relative viability: 0.237
[2]; first compound 0.002 µM
  relative viability: 0.323
[2]; first compound 0.006325 µM
  relative viability: 0.303
[2]; first compound 0.02 µM
  relative viability: 0.263
[2]; first compound 0.06325 µM
  relative viability: 0.334
[2]; first compound 0.2 µM
  relative viability: 0.192
[3]; first compound 0.002 µM
  relative viability: 0.519
[3]; first compound 0.006325 µM
  relative viability: 0.485
[3]; first compound 0.02 µM
  relative viability: 0.147
[3]; first compound 0.06325 µM
  relative viability: 0.0553
[3]; first compound 0.2 µM
  relative viability: 0.0762
[4]; first compound 0.002 µM
  relative viability: 0.373
[4]; first compound 0.006325 µM
  relative viability: 0.251
[4]; first compound 0.06325 µM
  relative viability: 0.455
[4]; first compound 0.2 µM
  relative viability: 0.204
[5]; first compound 0.002 µM
  relative viability: 0.734
[5]; first compound 0.006325 µM
  relative viability: 0.611
[5]; first compound 0.02 µM
  relative viability: 0.603
[5]; first compound 0.06325 µM
  relative viability: 0.408
[5]; first compound 0.2 µM
  relative viability: 0.102
[6]; first compound 0.002 µM
  relative viability: 0.884
[6]; first compound 0.006325 µM
  relative viability: 0.721
[6]; first compound 0.02 µM
  relative viability: 0.986
[6]; first compound 0.06325 µM
  relative viability: 0.726
[6]; first compound 0.2 µM
  relative viability: 0.106
[7]; first compound 0.002 µM
  relative viability: 0.517
[7]; first compound 0.006325 µM
  relative viability: 0.543
[7]; first compound 0.02 µM
  relative viability: 0.388
[7]; first compound 0.06325 µM
  relative viability: 0.258
[7]; first compound 0.2 µM
  relative viability: 0.29
[8]; first compound 0.002 µM
  relative viability: 0.678
[8]; first compound 0.006325 µM
  relative viability: 0.656
[8]; first compound 0.02 µM
  relative viability: 0.473
[8]; first compound 0.06325 µM
  relative viability: 0.414
[8]; first compound 0.2 µM
  relative viability: 0.153
[9]; first compound 0.002 µM
  relative viability: 0.418
[9]; first compound 0.006325 µM
  relative viability: 0.386
[9]; first compound 0.02 µM
  relative viability: 0.366
[9]; first compound 0.06325 µM
  relative viability: 0.33
[9]; first compound 0.2 µM
  relative viability: 0.309
[10]; first compound 0.002 µM
  relative viability: 0.453
[10]; first compound 0.006325 µM
  relative viability: 0.476
[10]; first compound 0.02 µM
  relative viability: 0.394
[10]; first compound 0.06325 µM
  relative viability: 0.353
[10]; first compound 0.2 µM
  relative viability: 0.341
[11]; first compound 0.002 µM
  relative viability: 0.352
[11]; first compound 0.006325 µM
  relative viability: 0.433
[11]; first compound 0.02 µM
  relative viability: 0.331
[11]; first compound 0.06325 µM
  relative viability: 0.132
[11]; first compound 0.2 µM
  relative viability: 0.107
[12]; first compound 0.002 µM
  relative viability: 0.39
[12]; first compound 0.006325 µM
  relative viability: 0.359
[12]; first compound 0.02 µM
  relative viability: 0.117
[12]; first compound 0.06325 µM
  relative viability: 0.116
[12]; first compound 0.2 µM
  relative viability: 0.14
[13]; first compound 0.002 µM
  relative viability: 0.311
[13]; first compound 0.006325 µM
  relative viability: 0.299
[13]; first compound 0.02 µM
  relative viability: 0.234
[13]; first compound 0.06325 µM
  relative viability: 0.236
[13]; first compound 0.2 µM
  relative viability: 0.0739
[14]; first compound 0.002 µM
  relative viability: 0.195
[14]; first compound 0.006325 µM
  relative viability: 0.232
[14]; first compound 0.02 µM
  relative viability: 0.169
[14]; first compound 0.06325 µM
  relative viability: 0.107
[14]; first compound 0.2 µM
  relative viability: 0.132
[15]; first compound 0.002 µM
  relative viability: 0.631
[15]; first compound 0.006325 µM
  relative viability: 0.606
[15]; first compound 0.02 µM
  relative viability: 0.399
[15]; first compound 0.06325 µM
  relative viability: 0.206
[15]; first compound 0.2 µM
  relative viability: 0.221
[16]; first compound 0.002 µM
  relative viability: 0.299
[16]; first compound 0.006325 µM
  relative viability: 0.245
[16]; first compound 0.02 µM
  relative viability: 0.291
[16]; first compound 0.06325 µM
  relative viability: 0.256
[16]; first compound 0.2 µM
  relative viability: 0.198
[17]; first compound 0.002 µM
  relative viability: 0.83
[17]; first compound 0.006325 µM
  relative viability: 0.812
[17]; first compound 0.02 µM
  relative viability: 0.0669
[17]; first compound 0.06325 µM
  relative viability: 0.0573
[17]; first compound 0.2 µM
  relative viability: 0.0548
[18]; first compound 0.002 µM
  relative viability: 0.234
[18]; first compound 0.006325 µM
  relative viability: 0.262
[18]; first compound 0.02 µM
  relative viability: 0.215
[18]; first compound 0.06325 µM
  relative viability: 0.268
[18]; first compound 0.2 µM
  relative viability: 0.276
[19]; first compound 0.002 µM
  relative viability: 0.579
[19]; first compound 0.006325 µM
  relative viability: 0.649
[19]; first compound 0.02 µM
  relative viability: 0.329
[19]; first compound 0.06325 µM
  relative viability: 0.132
[19]; first compound 0.2 µM
  relative viability: 0.114
[20]; first compound 0.002 µM
  relative viability: 0.468
[20]; first compound 0.006325 µM
  relative viability: 0.417
[20]; first compound 0.02 µM
  relative viability: 0.359
[20]; first compound 0.06325 µM
  relative viability: 0.112
[20]; first compound 0.2 µM
  relative viability: 0.115
[21]; first compound 0.002 µM
  relative viability: 0.301
[21]; first compound 0.006325 µM
  relative viability: 0.281
[21]; first compound 0.02 µM
  relative viability: 0.233
[21]; first compound 0.06325 µM
  relative viability: 0.189
[21]; first compound 0.2 µM
  relative viability: 0.203
[22]; first compound 0.002 µM
  relative viability: 0.194
[22]; first compound 0.006325 µM
  relative viability: 0.167
[22]; first compound 0.02 µM
  relative viability: 0.077
[22]; first compound 0.06325 µM
  relative viability: 0.049
[22]; first compound 0.2 µM
  relative viability: 0.0612
[23]; first compound 0.002 µM
  relative viability: 0.506
[23]; first compound 0.006325 µM
  relative viability: 0.532
[23]; first compound 0.02 µM
  relative viability: 0.13
[23]; first compound 0.06325 µM
  relative viability: 0.0551
[23]; first compound 0.2 µM
  relative viability: 0.0703
